We go through ten molecules from ChEMBL document CHEMBL1201862, “PubChem BioAssay data set” (2004).

Molecules are shown by their SMILES.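 In this assay, cells in 96-well plates receive the compound at five concentrations for 48 hours. Endpoints are linearly interpolated between the surrounding concentrations. GI50: concentration for 50% inhibition of growth.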 Calls of active or inactive are those of the source. No stated cut-off is given here; in the data, active = GI50 up to about 1.1 µM and inactive = higher.

Test systems include 786-0; A498; ACHN; BT-549; CAKI-1; EKVX; HCC 2998; HCT-15; KM12; M14; MDA-MB-435; NCI-H226; NCI-H23; OVCAR-3; SF-268; SK-MEL-2; SK-OV-3; SNB-19; SNB-75; UACC-257.
Assay in all cases: inhibition of tumour cell growth, NCI panel, 48 h

With `Nc1nc(Cl)c(/N=N/c2ccc(Cl)cc2)c(NCC2(CO)CCC(CCc3ccccc3)C2)n1` (stereo not given), the GI50 in the assay with 786-0 is 6.32 µM (inactive); with A498, 13.2 µM (inactive); in the assay with ACHN, 5.97 µM (inactive); in the assay on BT-549 it was 6.81 µM (inactive); in the assay with CAKI-1, 2.8 µM (inactive); in the assay on EKVX it was 8.79 µM (inactive). Moreover, the GI50 with HCC 2998 is 5.97 µM (inactive); in the assay on HCT-15, 6.87 µM; in the assay with KM12, 13.2 µM (inactive); in the assay with M14 it was 8.81 µM (inactive); in the assay with MDA-MB-435 it was 9.98 µM (inactive); in the assay with NCI-H226 it was 1.91 µM (inactive). In addition, the GI50 is 1.26 µM (inactive) in the assay with NCI-H23; 11 µM (inactive) with OVCAR-3; 6.22 µM (inactive) in the assay on SF-268; 13.6 µM (inactive) in the assay on SK-MEL-2; 12 µM (inactive) in the assay on SK-OV-3; 19.5 µM (inactive) in the assay with SNB-19. The figures for the GI50 in the assay with SNB-75 and in the assay on UACC-257 were 13.6 µM (inactive) and 10.6 µM (inactive), respectively.

With `C=C1C(=O)OC2C3OC(C)(CCC(O)C3COC(C)=O)CC(OC(=O)/C(=C/C)COC(C)=O)C12` (stereo not given), the GI50 with 786-0 is 0.138 µM (active); in the assay on A498 it was 1.58 µM (inactive); in the assay on ACHN, 0.0925 µM (active); in the assay on BT-549 it was 0.18 µM (active); in the assay with CAKI-1, 0.166 µM (active); with EKVX, 0.424 µM (active). The GI50 was 1.3 µM (inactive) in the assay with HCC 2998; 0.061 µM with HCT-15; 1.5 µM (inactive) in the assay with KM12; 0.469 µM (active) in the assay on M14; 0.109 µM (active) in the assay on MDA-MB-435; 2.16 µM (inactive) in the assay with NCI-H226. The GI50 in the assay with NCI-H23 was 1.02 µM (active); in the assay with OVCAR-3, 0.212 µM (active); in the assay on SF-268 it was 0.982 µM (active); with SK-MEL-2, 1.13 µM (inactive); in the assay on SK-OV-3, 6.64 µM (inactive); in the assay on SNB-19, 5.32 µM (inactive). The figures for the GI50 in the assay with SNB-75 and in the assay on UACC-257 were 4.66 µM (inactive) and 0.586 µM (active), respectively.

In the case of `CCCCC1(N=[N+]=[N-])C(=O)C2C=CC=C3c4ccccc4N(C1=O)C32` (stereo not given), the GI50 with 786-0 was 22 µM (inactive); in the assay on A498 it was > 10 µM (inactive); in the assay with ACHN, 17.5 µM (inactive); with BT-549 it was 24.5 µM (inactive); in the assay on CAKI-1, 19.8 µM (inactive); in the assay on EKVX it was 17.8 µM (inactive). The GI50 was 15.6 µM (inactive) in the assay with HCC 2998; 17.2 µM in the assay on HCT-15; 24.8 µM (inactive) with KM12; 19.3 µM (inactive) with M14; 19.1 µM (inactive) in the assay with MDA-MB-435; 21.3 µM (inactive) in the assay on NCI-H226. The GI50 is 14.4 µM (inactive) with NCI-H23; 21.6 µM (inactive) in the assay with OVCAR-3; 19.9 µM (inactive) in the assay with SF-268; 11 µM (inactive) in the assay on SK-MEL-2; 25.8 µM (inactive) in the assay with SK-OV-3; 22.1 µM (inactive) with SNB-19. Further, the GI50 in the assay on SNB-75 is 11.6 µM (inactive); in the assay on UACC-257 it was 18.4 µM (inactive).

Regarding `C=C[C@]1(C)C[C@@H](OC(=O)CO)[C@@]2(C)[C@H](C)CC[C@]3(CCC(=O)[C@H]32)[C@@H](C)[C@@H]1O`, the GI50 in the assay with 786-0 was > 100 µM (inactive); in the assay with A498, > 54.6 µM (inactive); with ACHN, > 93.5 µM (inactive); in the assay on BT-549, > 61.4 µM (inactive); with CAKI-1, > 100 µM (inactive); in the assay on EKVX it was > 100 µM (inactive). For the same molecule, the GI50 was 72.9 µM (inactive) in the assay on HCC 2998; > 94.8 µM with HCT-15; > 100 µM (inactive) in the assay with KM12; > 78.9 µM (inactive) with M14; > 68.1 µM (inactive) in the assay on MDA-MB-435; > 100 µM (inactive) in the assay on NCI-H226. Besides, the GI50 is > 70.1 µM (inactive) in the assay on NCI-H23; > 60.1 µM (inactive) in the assay on OVCAR-3; > 83.2 µM (inactive) in the assay with SF-268; > 59.3 µM (inactive) in the assay on SK-MEL-2; > 100 µM (inactive) with SK-OV-3; > 100 µM (inactive) in the assay with SNB-19. Besides, the GI50 in the assay on SNB-75 was > 74 µM (inactive); with UACC-257, > 76.6 µM (inactive).

As for `S=C(Nc1ccc(Br)cn1)NC12CC3CC(CC(C3)C1)C2`, the GI50 is 8.05 µM (inactive) with 786-0; 33 µM (inactive) in the assay with A498; 13.2 µM (inactive) with ACHN; > 10 µM (inactive) in the assay on BT-549; 35.9 µM (inactive) in the assay with CAKI-1; 18.5 µM (inactive) in the assay on EKVX. In addition, the GI50 is 19.4 µM (inactive) in the assay with HCC 2998; 68.7 µM in the assay with HCT-15; > 100 µM (inactive) in the assay with KM12; 46 µM (inactive) with M14; 92.9 µM (inactive) in the assay with MDA-MB-435; 20.5 µM (inactive) in the assay on NCI-H226. Also, the GI50 is 15.3 µM (inactive) in the assay with NCI-H23; 46.3 µM (inactive) with OVCAR-3; 11.4 µM (inactive) in the assay with SF-268; 22.3 µM (inactive) with SK-MEL-2; 23.1 µM (inactive) in the assay on SK-OV-3; 11 µM (inactive) in the assay on SNB-19. Further, the values for the GI50 with SNB-75 and in the assay with UACC-257 were 13.9 µM (inactive) and 25.1 µM (inactive), respectively.

Turning to `CCCSc1cc(Cl)c(C)cc1S(=O)(=O)n1ccnc1O`, the GI50 in the assay on 786-0, with A498, in the assay with ACHN, in the assay with BT-549, in the assay with CAKI-1 and in the assay with EKVX was > 100 µM (inactive) throughout. Moreover, the GI50 in the assay on HCC 2998 is > 100 µM (inactive); in the assay on HCT-15, > 100 µM; in the assay on KM12, > 100 µM (inactive); with M14 it was > 100 µM (inactive); with MDA-MB-435 it was > 100 µM (inactive); in the assay on NCI-H226, > 100 µM (inactive). The GI50 in the assay on NCI-H23, in the assay with OVCAR-3, in the assay with SF-268, in the assay with SK-MEL-2, in the assay on SK-OV-3 and in the assay with SNB-19 was > 100 µM (inactive) in each case. Besides, the figures for the GI50 in the assay on SNB-75 and in the assay with UACC-257 were 20.1 µM (inactive) and > 100 µM (inactive), respectively.

For the molecule `O=c1c2ccccc2[nH]n1Cc1ccccc1`, the GI50 with 786-0, with A498, in the assay with ACHN, in the assay with BT-549, in the assay with CAKI-1 and in the assay with EKVX was > 100 µM (inactive) each time. For the same molecule, the GI50 in the assay on HCC 2998 was > 100 µM (inactive); in the assay with HCT-15, > 100 µM; in the assay on KM12, > 100 µM (inactive); with M14, > 100 µM (inactive); with MDA-MB-435, > 100 µM (inactive); with NCI-H226, > 100 µM (inactive). The GI50 in the assay with NCI-H23, in the assay with OVCAR-3, in the assay on SF-268, in the assay on SK-MEL-2, with SK-OV-3 and in the assay on SNB-19 was > 100 µM (inactive) each time. The GI50 in the assay with SNB-75 and in the assay with UACC-257 was > 100 µM (inactive) in each case.

As to `CCOC(=O)c1nc2c(nc1C(=O)OCC)C(=O)c1ccccc1C2=O`, the GI50 in the assay with 786-0 was 0.839 µM (active); in the assay with A498, 1.87 µM (inactive); in the assay with ACHN, 0.757 µM (active); in the assay with BT-549, 0.471 µM (active); in the assay on CAKI-1 it was 1 µM (active); with EKVX it was 1.38 µM (inactive). The GI50 in the assay with HCC 2998 was 1.35 µM (inactive); with HCT-15 it was 1.92 µM; with KM12, 1.45 µM (inactive); in the assay on M14, 0.585 µM (active); in the assay on MDA-MB-435, 0.246 µM (active); in the assay on NCI-H226 it was 0.569 µM (active). Also, the GI50 in the assay with NCI-H23 was 0.31 µM (active); in the assay on OVCAR-3, 0.37 µM (active); in the assay on SF-268, 0.818 µM (active); with SK-MEL-2, 0.394 µM (active); with SK-OV-3, 1.59 µM (inactive); in the assay on SNB-19, 0.446 µM (active). Besides, the GI50 with SNB-75 was 0.479 µM (active); with UACC-257, 0.431 µM (active).

As to `NC(Cc1ccccc1)c1nccs1` (stereo not given), the GI50 in the assay on 786-0, with A498, with ACHN, in the assay on BT-549, in the assay on CAKI-1 and with EKVX was > 100 µM (inactive) throughout. Further, the GI50 is > 100 µM (inactive) in the assay with HCC 2998; > 100 µM in the assay with HCT-15; > 100 µM (inactive) with KM12; > 100 µM (inactive) in the assay with M14; > 100 µM (inactive) in the assay with MDA-MB-435; > 100 µM (inactive) with NCI-H226. Further, the GI50 with NCI-H23, in the assay on OVCAR-3, in the assay with SF-268, in the assay on SK-MEL-2, in the assay on SK-OV-3 and with SNB-19 was > 100 µM (inactive) each time. Besides, the GI50 in the assay on SNB-75 and in the assay with UACC-257 was > 100 µM (inactive) throughout.

As for `Cn1c2ccccc2c2c3c(c4c5ccccc5n(C5OC(CO)C(O)C(O)C5O)c4c21)C(=O)OC3=O` (stereo not given), the GI50 in the assay on 786-0, in the assay on A498, in the assay with ACHN, in the assay with BT-549, in the assay on CAKI-1 and in the assay with EKVX was > 100 µM (inactive) in each case. For the same molecule, the GI50 in the assay on HCC 2998 was > 100 µM (inactive); in the assay on HCT-15, > 100 µM; with KM12, > 100 µM (inactive); in the assay with M14, > 100 µM (inactive); in the assay with MDA-MB-435, > 100 µM (inactive); in the assay with NCI-H226 it was > 100 µM (inactive). The GI50 in the assay on NCI-H23, with OVCAR-3, with SF-268, in the assay with SK-MEL-2, with SK-OV-3 and in the assay on SNB-19 was > 100 µM (inactive) throughout. The values for the GI50 in the assay on SNB-75 and with UACC-257 were 87.3 µM (inactive) and > 100 µM (inactive), respectively.
